Source: ChEMBL document CHEMBL1148108, “Prenylated isoflavonoids from the root bark of Erythrina vogelii” (J Nat Prod, 2002)
The source made the active and inactive calls. The calls are words filed in the database; no cut-off is given here.

system: Cladosporium cucumerinum; test: Antifungal activity against Cladosporium cucumerinum by TLC biautography assay; type: functional, organism-based

Compound | Activity
COc1cc(O)c(CC=C(C)C)cc1-c1coc2cc(O)cc(O)c2c1=O | inactive
CC1(C)Oc2ccc(-c3coc4cc(O)cc(O)c4c3=O)cc2C[C@@H]1O | inactive
COc1ccc([C@@H]2COc3cc(O)c(CC=C(C)C)c(O)c3C2=O)cc1CC=C(C)C | inactive
CC(C)=CCc1c(O)cc(O)c2c(=O)c(-c3ccc4c(c3)C=CC(C)(C)O4)coc12 | inactive
C/C(=C\Cc1cc(-c2coc3cc(O)cc(O)c3c2=O)ccc1O)CO | inactive
CC(C)=CCc1c(O)cc2occ(-c3ccc4c(c3)C=CC(C)(C)O4)c(=O)c2c1O | inactive
CC(C)=CCc1cc(-c2coc3cc(O)cc(O)c3c2=O)cc2c1OC(C)(C)C(O)C2 (configuration not stated) | inactive
